One test relates to Proteus vulgaris 5. In words: MIC and FIC, Nutrient agar (Test 6). Format: cell-based. Conditions: Proteus vulgaris; P. vulgaris 5; 18 h; read-out: MIC.
For test [1], the system named is Pseudomonas aeruginosa No.5. In words: MIC and FIC, Nutrient agar, multiple inoculator (Tests 4, 5). The format is cell-based. Particulars: Pseudomonas aeruginosa; P. aeruginosa No.5; 10^8 cells/ml, 20 h; read-out: MIC.
Method: (§1) After the incubation was carried out at 37° C. for 20 hours, MIC values were determined.
Test [2] has as its system Pseudomonas aeruginosa No.18. Nature of the test: MIC and FIC, Nutrient agar, multiple inoculator (Test 5). The format is cell-based. Particulars: Pseudomonas aeruginosa; P. aeruginosa No.18; 10^8 cells/ml, 20 h; read-out: MIC.
Method: as §1
(§2) FIC values and FIC Index were calculated in substantially the same manner as described in Test 1.
The test system of test [3] is Pseudomonas aeruginosa 1101-76. Nature of the test: MIC and FIC, Nutrient agar (Test 3). Conditions: Pseudomonas aeruginosa, 110176, 20 h. The format is cell-based.
Another test concerns Enterobacter aerogenes 7. Nature of the test: MIC and FIC, Nutrient agar (Tests 6, 7, 9). The format is cell-based. Particulars: Klebsiella aerogenes; E. aerogenes 7; 18 h; read-out: MIC.
The test system of test [4] is Pseudomonas aeruginosa No.13. Nature of the test: MIC and FIC, Nutrient agar, multiple inoculator (Test 5). The format is cell-based. Conditions: Pseudomonas aeruginosa; P. aeruginosa No.13; 10^8 cells/ml, 20 h; read-out: MIC.
Method: as §1, §2
Test [5] deals with Pseudomonas aeruginosa 77. In words: MIC and FIC, Nutrient agar (Test 7). Conditions: P. aeruginosa 77, 18 h. The format is cell-based.
Method: as §2
The test system of test [6] is Pseudomonas aeruginosa 42. In words: MIC and FIC, Nutrient agar (Test 7). Particulars: Pseudomonas aeruginosa; P. aeruginosa 42; 18 h; read-out: MIC. The format is cell-based.
Method: as §2
Test [7] has as its system Staphylococcus epidermidis 1601-1. Nature of the test: MIC and FIC, Nutrient agar (Tests 2, 3). The format is cell-based. Conditions: 16011, S. epidermidis 1601-1, 20 h.
Method: as §1
Test [8] has as its system Enterobacter cloacae 1401-4. In words: MIC and FIC, Nutrient agar (Tests 2, 3). Format: cell-based. Conditions: E. cloacae 1401-4.
The next test has as its system Escherichia coli 99. In words: MIC and FIC, Nutrient agar (Test 6). Particulars: Escherichia coli, 99, 18 h.

SMILES strings stand for the structures. A value given as a limit tells only on which side of the number the result lay.

Method for Enterobacter aerogenes 7: as §2
Method for Escherichia coli 99: as §2
Method for Proteus vulgaris 5: as §2

`O=CN(O)CCCP(=O)(O)O` [A (Table 2)]: the MIC – broadly, the smallest concentration in the dilution series that meets the test's criterion for growth inhibition – was 25 mg/L in the test on Proteus vulgaris 5; 800 mg/L in [1]; above 800 mg/L in test [2]; 1.56 mg/L in [3]; 100 mg/L with Enterobacter aerogenes 7; 800 mg/L in test [4]. Also, the MIC in test [5] was 6.25 mg/L; in test [6], 50 mg/L; in test [7] it was at least 400 mg/L; in test [8] (20 h, listed as A (Table 3)) it was 3.16 mg/L; in [8] (20 h, listed as A (Table 4)), 3.13 mg/L; in test [8] (Enterobacter cloacae, 14014, 20 h), 3.13 mg/L. The MIC in the test with Escherichia coli 99 is 25 mg/L.

For the origin of these results see patent publication US4330529A, “Antibacterial composition” (Fujisawa Pharmaceutical Co., Ltd., priority 1979, dated 1982).
